Reference: patent US9452985B2, “Tau imaging probe” (GE Healthcare Limited, priority 2010, dated 2016)
Where two headings read alike, the source gives them in different places. Each block holds one compound with its values, some of them ahead of it.

Columns and labels:
K18-ΔK280 aggregates = K18-ΔK280 aggregates (Homo sapiens (Human), UniProt P10636, DEL597-597); experiment: Competitive binding test using [^18F] THK-5105 as radioactive competitor; conditions: radioactive ligand [^18F] THK-5105 1.76 nM, K18-ΔK280 aggregates 200 nM, room temperature, one hour
Procedure: Regarding the binding of tau imaging probes to tau protein aggregates, a binding test was carried out and evaluated using a K18-ΔK280 construct which contained a 4-repeat structure involved in the formation of beta-sheet structures in the htau40 protein. For K18-ΔK280 (Martin von Bergen et al., THE JOURNAL OF BIOLOGICAL CHEMISTRY (2001), vol. 276, pp. 48165-48174; M. Goedert et al., NEURON (1989), vol. 3, pp. 519-526), an artificial gene fragment which was prepared based on its amino acid sequence was cloned into a pET-3a vector, the resulting plasmid was used to transform Escherichia coli BL21 (DE3) competent cells for protein expression, and the recombinant Escherichia coli cell was cultured to express K18-ΔK280. The K18-ΔK280 expressed was purified according to the method described in the literature (Stefan Barghorn et al., Methods in Molecular Biology, vol. 299, pp. 35-51). In the binding test, aggregates of the purified K18-ΔK280 were made and used.
K18-ΔK280 aggregates were made by preparing 20 μM PBS (pH 7.4) and incubating the K18-ΔK280 in the PBS at 37° C. for 4 days. The state where beta-sheet structures in K18-ΔK280 aggregates were formed was ascertained by thioflavin S fluorescence binding test. The aggregates solution was diluted to 400 nM in assay buffer (PBS, 0.1% BSA) and used in the binding test.
For tau imaging probes other than THK-5105, binding to K18-ΔK280 aggregates was evaluated with a competitive binding test using [^18F] THK-5105 as a radioactive competitor. In the binding test, [^18F] THK-5105 (at a final concentration of 1.76 nM) and a tested compound (at final concentrations of from 0.1 to 1000 nM) coexisted in the reaction system, to which K18-ΔK280 aggregates (at a final concentration of 200 nM) was then added and the mixtures were incubated at room temperature for one hour. The radioactivity of [^18F] THK-5105 binding to the aggregates was determined in a similar way as in the saturation binding test of THK-5105. The percentage of [^18F] THK-5105 bonding in the absence of each tested compound was set to be 100%, and percentages of [^18F] THK-5105 bonding at various concentrations of each of the tested compounds were determined.

neurofibrillary tangles = experiment: Staining test on brain section of Alzheimer's disease patients; assay type: binding, human; conditions: 100 μM solution in 50% ethanol, 10 minutes, fluorescence microscope
Excerpt: The procedure of staining test on the compounds of the present invention on the brain section of Alzheimer's disease patients is described below:
(1) We used the brain specimens of the temporal lobe or hippocampus from patients who were definitely diagnosed as having Alzheimer's disease pathology. The specimens were obtained from Choju Medical Institute, Fukushimura Hospital, our collaborating research institute, and the consent for use for research purposes was obtained from the patients' bereaved family (Fukushimura Hospital, Ethics Committee Approval No. 20).
(2) The paraffin-embedded brain tissue was sliced to 6 or 8 μm thickness, extended on a slide glass, and dried. The paraffinized brain section was deparaffinized by washing with xylene for 10 minutes×2, 100% ethanol for 5 minutes×2, 90% ethanol for 5 minutes, and running water for 10 minutes in this order.
(3) As a pretreatment for staining with the compounds of the present invention, the treatment to remove autofluorescence with lipofuscin was performed. First, the paraffinized brain section was immersed in 0.25% KMnO4 solution for 20 minutes. It was washed with PBS for 2 minutes twice, immersed in a 0.1% K2S2O5/oxalic acid solution for approximately 5 minutes, and further washed with PBS for 2 minutes 3 times.
(4) From 100 μM solution of the compounds of the present invention dissolved in 50% ethanol, approximately 150 μl was dropped on the section to react for 10 minutes. After being immersed in tap water 5 times, it was mounted with Flour Save Reagent (Calbiochem) and examined with a fluorescence microscope (Nikon, ECLIPSE 80i). The images were taken with a digital camera (Nikon, Dxin1200F or Photometrics, Cool SNAP ES).

[1] = tested on: neurofibrillary tangles (tau protein); experiment: Autoradiography experiments using [^18F] THK-5105, [^18F] THK-5117 and [^18F] THK-5125; assay type: binding, human; conditions: for affinity to neurofibrillary tangles (tau protein), autoradiography / accumulation in autoradiography of sections of the lateral temporal cortex and of the medial temporal cortex: Alzheimer's disease patient brain sections; for accumulation in autoradiography of sections of the lateral temporal cortex and of the medial temporal cortex: approximately 400 μCi/ml, 10 minutes
Procedure: Paraffin-embedded sections of the brain from an Alzheimer's disease patient were deparaffinized, and then immersed in PBS for 10 minutes. Approximately 400 μCi/ml of each of [^18F] THK-5105, [^18F] THK-5117, and [^18F] THK-5125 was added dropwise to deparaffinized sections and allowed to react for 10 minutes at room temperature. After that, the sections were immersed in distilled water for 2 minutes, shaken lightly in 50% EtOH for 2 minutes, immersed again in distilled water for 2 minutes, and dried in a paraffin stretching device. The section was left overnight in contact with an imaging plate. Next day, the image was read with a BAS 5000 (Fujifilm Corporation). In addition, adjacent sections were immunostained with anti-phosphorylated tau antibody (AT8).

[2] = Evaluation of brain delivery of [^18F] THK-5105, [^18F] THK-5117 and [^18F] THK-5125 in mice; assay type: in vivo, male ICR mice; conditions: for delivery to and washout from the brain / % ID/g 2 minutes post-administration: mice; for delivery to and washout from the brain: compared with [^18F] BAY94-9172, [^18F] AV-45 and [^18F] FDDNP; for % ID/g 2 minutes post-administration: tail vein, brain; for 2 minutes post-administration/60 minutes post-administration: quotient of brain % ID/g values
Procedure: A physiological saline solution containing [^18F] THK-5105, [^18F] THK-5117, or [^18F] THK-5125 was administered into the tail vein of male ICR mice (6 to 7 weeks old), and brain delivery of these label compounds was assessed from the accumulation of radioactivity in brain and plasma tissues at two minutes post-injection.
As an index in the evaluation of radioactive accumulation, use was made of the percentage of radioactivity per unit weight of brain relative to the total radioactivity administered (% Injected Dose/g of tissue; % ID/g). For measurement of radioactivity, a gamma counter (1480 WIZARD, Perkin Elmer) was used. Experimental procedures were as follows. A label compound was administered into the tail vein of mice. Two minutes later, each mouse was subjected to cervical dislocation under ether anesthesia, and the whole brain, including the cerebellum and brain stem, was isolated immediately. The radioactivity and tissue weight of the sample were measured, and their data were used to calculate a % ID/g values for the labeled compound.

[3] = as above; assay type: in vivo, male ICR mice; conditions: tail vein
[4] = data taken from Zhang et al. 2005 / Choi et al. 2009, cited from earlier work; for % ID/g 2 minutes post-administration / % ID/g 60 minutes post-administration: brain; for 2 minutes post-administration/60 minutes post-administration: quotient of brain % ID/g values

Chain of K18-ΔK280 aggregates (P10636 other isoform, or with tags, fused parts or gaps del 597-597): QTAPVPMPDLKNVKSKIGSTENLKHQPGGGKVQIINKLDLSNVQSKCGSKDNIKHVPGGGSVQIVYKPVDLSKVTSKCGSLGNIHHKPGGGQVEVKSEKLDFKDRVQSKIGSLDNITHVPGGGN

SMILES: CC(=C(C#N)C#N)c1ccc2cc(N(C)CCF)ccc2c1 [FDDNP, reference compound]
Ki (K18-ΔK280 aggregates): 256 nM

Ki (K18-ΔK280 aggregates): 59.3 nM
SMILES: Nc1ccc(-c2ccc3cc(OCCF)ccc3n2)cc1 [THK-523, reference compound]

Ki (K18-ΔK280 aggregates): 36 nM
SMILES: Nc1ccc(-c2ccc3cc(OCC(O)CF)ccc3n2)cc1 (stereo not shown) [THK-5116, 2-(4-aminophenyl)-6-[(3-fluoro-2-hydroxy)propoxy]quinoline]
binding to neurofibrillary tangles in the brain section of Alzheimer's disease patients (staining test) (neurofibrillary tangles): bind to neurofibrillary tangles specifically and selectively

Ki (K18-ΔK280 aggregates): 10.5 nM
SMILES: CNc1ccc(-c2ccc3cc(OCC(O)CF)ccc3n2)cc1 (stereo not shown) [THK-5117, 6-[(3-fluoro-2-hydroxy)propoxy]-2-(4-methylaminophenyl)quinoline]
binding to neurofibrillary tangles in the brain section of Alzheimer's disease patients (staining test) (neurofibrillary tangles): bind to neurofibrillary tangles specifically and selectively

Ki (K18-ΔK280 aggregates): 34.9 nM
SMILES: CCN(CC)c1ccc(-c2ccc3cc(OCC(O)CF)ccc3n2)cc1 (stereo not shown) [THK-5122, 6-[(3-fluoro-2-hydroxy)propoxy]-2-(4-diethylaminophenyl)quinoline]

Ki (K18-ΔK280 aggregates): 9.2 nM
SMILES: CCNc1ccc(-c2ccc3cc(OCC(O)CF)ccc3n2)cc1 (stereo not shown) [THK-5125, 2-(4-ethylaminophenyl)-6-[(3-fluoro-2-hydroxy)propoxy]quinoline]

Ki (K18-ΔK280 aggregates): 21.4 nM
SMILES: CN(C)c1ccc(-c2ccc3cc(OCC(O)CF)ccc3n2)cn1 (stereo not shown) [THK-5129, 6-[(3-fluoro-2-hydroxy)propoxy]-2-(2-dimethylaminopyrid-5-yl)quinoline]

Ki (K18-ΔK280 aggregates): 40.1 nM
SMILES: CNc1ccc(-c2ccc3cc(OCC(O)CF)ccc3n2)cn1 (stereo not shown) [THK-5151, 2-(2-methylaminopyrid-5-yl)-6-[(3-fluoro-2-hydroxy)propoxy]quinoline]

SMILES: CN1CCCc2cc(-c3ccc4cc(OCC(O)CF)ccc4n3)ccc21 (stereo not shown) [THK-5153, 6-[(3-fluoro-2-hydroxy)propoxy]-2-(1-methyl-1,2,3,4-tetrahydroquinolin-6-yl)quinoline]
binding to neurofibrillary tangles in the brain section of Alzheimer's disease patients (staining test) (neurofibrillary tangles): bind to neurofibrillary tangles specifically and selectively

SMILES: Nc1ccc2nc(-c3ccc(N)c(OCC(O)CF)c3)ccc2c1 (stereo not shown) [THK-5155, 6-amino-2-[4-(amino)-3-[(3-fluoro-2-hydroxy)propoxy]phenyl]quinoline]
binding to neurofibrillary tangles in the brain section of Alzheimer's disease patients (staining test) (neurofibrillary tangles): bind to neurofibrillary tangles specifically and selectively

SMILES: CN(C)c1ccc2nc(-c3ccc(N(C)C)c(OCC(O)CF)c3)ccc2c1 (stereo not shown) [THK-5156, 2-[3-[(3-fluoro-2-hydroxy)propoxy]-4-(dimethylamino)phenyl]-6-dimethylaminoquinoline]
binding to neurofibrillary tangles in the brain section of Alzheimer's disease patients (staining test) (neurofibrillary tangles): bind to neurofibrillary tangles specifically and selectively

SMILES: CN1CCCc2cc(-c3ccc4cc(OC(C)(C)C(O)CF)ccc4n3)ccc21 (stereo not shown) [THK-5157, 6-[(3-fluoro-2-hydroxy-1,1-dimethyl)propoxy]-2-(1-methyl-1,2,3,4-tetrahydroquinolin-6-yl)quinoline]
binding to neurofibrillary tangles in the brain section of Alzheimer's disease patients (staining test) (neurofibrillary tangles): bind to neurofibrillary tangles specifically and selectively

SMILES: CNc1ccc(-c2ccc3cc(N(C)C)ccc3n2)cc1OCC(O)CF (stereo not shown) [THK-5164, 2-[3-[(3-fluoro-2-hydroxy)propoxy]-4-(methylamino)phenyl]-6-dimethylamino quinoline]
binding to neurofibrillary tangles in the brain section of Alzheimer's disease patients (staining test) (neurofibrillary tangles): bind to neurofibrillary tangles specifically and selectively

% ID/g 2 minutes post-administration [2]: 9.20 % ID/g
2 minutes post-administration/60 minutes post-administration [2]: 9.20
% ID/g 60 minutes post-administration [3]: 1.00 % ID/g
SMILES: CN(C)c1ccc(-c2ccc3cc(OC[C@H](O)C[18F])ccc3n2)cc1 [[^18F] THK-5105]
affinity to neurofibrillary tangles (tau protein), autoradiography [1]: high affinity to neurofibrillary tangles (tau protein)
accumulation in autoradiography of sections of the lateral temporal cortex and of the medial temporal cortex [1]: accumulated in the lateral temporal cortex and medial temporal cortex
correspondence of autoradiography / unlabeled staining image with anti-phosphorylated tau antibody (AT8) immunostaining ([1]; hippocampus section and adjacent sections, higher magnification images): corresponded well with the image of immunostaining with the anti-phosphorylated tau antibody
delivery to and washout from the brain [2]: superior in being delivered to and washed out from the brain

SMILES: CNc1ccc(-c2ccc3cc(OCC(O)C[18F])ccc3n2)cc1 (stereo not shown) [[^18F] THK-5117]
affinity to neurofibrillary tangles (tau protein), autoradiography [1]: high affinity to neurofibrillary tangles (tau protein)
accumulation in autoradiography of sections of the lateral temporal cortex and of the medial temporal cortex [1]: accumulated in the lateral temporal cortex and medial temporal cortex
delivery to and washout from the brain [2]: superior in being delivered to and washed out from the brain
% ID/g 2 minutes post-administration [2]: 6.06 % ID/g
2 minutes post-administration/60 minutes post-administration [2]: 23.3
% ID/g 60 minutes post-administration [3]: 0.26 % ID/g

SMILES: CNc1ccc(/C=C/c2ccc(OCCOCCOCC[18F])nc2)cc1 [[^18F]AV-45]
% ID/g 2 minutes post-administration [4]: 7.33 % ID/g
% ID/g 60 minutes post-administration [4]: 1.88 % ID/g
2 minutes post-administration/60 minutes post-administration [4]: 3.90

SMILES: CNc1ccc(/C=C/c2ccc(OCCOCCOCC[18F])cc2)cc1 [[^18F]BAY94-9172]
% ID/g 2 minutes post-administration [4]: 7.77 % ID/g
% ID/g 60 minutes post-administration [4]: 1.61 % ID/g
2 minutes post-administration/60 minutes post-administration [4]: 4.83

SMILES: CC(=C(C#N)C#N)c1ccc2cc(N(C)CCF)ccc2c1 [[^18F]FDDNP, reference compound]
% ID/g 2 minutes post-administration [2]: 6.23 % ID/g
2 minutes post-administration/60 minutes post-administration [2]: 2.91
% ID/g 60 minutes post-administration [3]: 2.14 % ID/g
